Measurements published in the Deep4Chem optical property database.
Each block holds one molecule with its values, some of them ahead of it.

Assay: solvent given as SMILES

fluorescence lifetime (in CC#N): 0.39 ns
SMILES: C=Cc1cc2ccccc2oc1=O

fluorescence lifetime (in C1COCCO1): 12.2 ns
fluorescence lifetime (in CCOC(C)=O): 8.2 ns
SMILES: COc1nc(Nc2ccc3cc4ccccc4cc3c2)nc(OC)n1

fluorescence lifetime (in CN(C)C=O): 1 ns
SMILES: O=C([O-])c1ccc(C(=O)[O-])c2cc3ccccc3cc12

fluorescence lifetime (in c1cc(-c2cccc(-n3c4ccccc4c4ccccc43)c2)cc(-n2c3ccccc3c3ccccc32)c1): 32 ns
SMILES: CC1(C)c2ccccc2N(c2ccc3nc4c5ccc(N6c7ccccc7C(C)(C)c7ccccc76)cc5c5cc(N6c7ccccc7C(C)(C)c7ccccc76)ccc5c4nc3c2)c2ccccc21

fluorescence lifetime (in ClCCl): 2.64 ns
SMILES: COC(=O)c1cc(=O)n(C)c2cc(-c3cccc(N(C)C)c3)sc12

SMILES: O=C1O[B-]2(OC1=O)OC(c1ccccc1)=CC(c1ccc3ccccc3c1)=[O+]2
fluorescence lifetime (in CC#N): 5.4 ns
fluorescence lifetime (in ClC(Cl)(Cl)Cl): 1.6 ns

SMILES: c1ccc(N(c2ccccc2)c2c3ccccc3c(N(c3ccccc3)c3ccccc3)c3ccccc23)cc1
fluorescence lifetime (in Cc1ccccc1): 13 ns

fluorescence lifetime (in CC#N): 1 ns
SMILES: C(=C\c1nc(-c2ccccc2)c2ccccn12)/c1nc(-c2ccccc2)c2ccccn12

fluorescence lifetime (in CC#N): 4.85 ns
SMILES: N#C/C(=C\c1ccncc1)c1nc(-c2ccccc2)cs1

SMILES: CN(C)c1ccc(C#Cc2cc3ccc4cc(C#Cc5ccc(N(C)C)cc5)cc5ccc(c2)c3c45)cc1
fluorescence lifetime (in Cc1ccccc1): 60 ns

SMILES: Cc1ccc(C2=C3C=CC(c4ccccc4)=[N+]3[B-](F)(F)n3c2ccc3-c2ccccc2)cc1
fluorescence lifetime (in C1CCCCC1): 1.56 ns
fluorescence lifetime (in C1CCOC1): 1.4 ns
fluorescence lifetime (in C1COCCO1): 1.59 ns
fluorescence lifetime (in CCOC(C)=O): 1.37 ns
fluorescence lifetime (in CO): 1.22 ns
fluorescence lifetime (in Cc1ccccc1): 2.17 ns
fluorescence lifetime (in ClC(Cl)Cl): 1.97 ns

fluorescence lifetime (in ClC(Cl)Cl): 0.4 ns
SMILES: O=c1oc2ccccc2cc1-c1cccc(-c2cc3ccccc3oc2=O)c1

SMILES: CC1(C)c2ccccc2N(c2ccccc2)c2ccc(C(=O)c3ccc4c(c3)C(C)(C)c3ccccc3N4c3ccccc3)cc21
fluorescence lifetime (in O=P(c1ccccc1)(c1ccccc1)c1ccccc1Oc1ccccc1P(=O)(c1ccccc1)c1ccccc1): 0.81 ns

fluorescence lifetime (in ClC(Cl)Cl): 5.11 ns
SMILES: CCOC(=O)C1(O)c2cc3ccc4cccc5ccc(c2C(=O)N1C(C)(C)C)c3c45 (stereo unspecified)

SMILES: CN(C)c1ccc(C#Cc2ccccc2)cc1
fluorescence lifetime (in C1CCCCC1): 0.38 ns
fluorescence lifetime (in C1CCOC1): 0.589 ns
fluorescence lifetime (in C1COCCO1): 0.71 ns
fluorescence lifetime (in CC1CCCO1): 0.414 ns
fluorescence lifetime (in CC#N): 1.25 ns
fluorescence lifetime (in CC(C)=O): 1.83 ns
fluorescence lifetime (in CC(C)CC(C)(C)C): 0.35 ns
fluorescence lifetime (in CCCCCCCCCCCCCCCC): 0.43 ns
fluorescence lifetime (in CCCCCCCCCCCCCCCCCl): 0.66 ns
fluorescence lifetime (in CCOC(C)=O): 1.16 ns
fluorescence lifetime (in CCOCC): 0.411 ns
fluorescence lifetime (in CN(C)C=O): 1.24 ns
fluorescence lifetime (in CS(C)=O): 0.757 ns
fluorescence lifetime (in Cc1ccccc1): 0.58 ns

fluorescence lifetime (in C1CCOC1): 0.3 ns
fluorescence lifetime (in ClCCl): 0.3 ns
SMILES: CCCCCCCc1ccc(C2=[N+]3C(=C4c5cc(OCC(CC)CC)c(-c6ccc(CCCCCCC)o6)n5[B-](F)(F)[n+]5nnn(c54)[B-]3(F)F)C=C2OCC(CC)CC)o1

SMILES: BrCCCCCCCCCCCCOc1cc2ccc3cccc4ccc(c1)c2c34
fluorescence lifetime (in Cc1ccccc1): 60 ns

SMILES: Cc1ccc2c(c1)C(c1ccccc1)(c1ccccc1)c1cc(C)ccc1N2c1ccc2c(c1)Oc1ccccc1B2c1c(C(C)C)cc(C(C)C)cc1C(C)C
fluorescence lifetime (in Cc1ccccc1): 23 ns
fluorescence lifetime (in O=P(c1ccccc1)(c1ccccc1)c1ccc2oc3ccc(P(=O)(c4ccccc4)c4ccccc4)cc3c2c1): 28 ns

fluorescence lifetime (in CCCCCC): 3.8 ns
fluorescence lifetime (in CO): 7.5 ns
fluorescence lifetime (in CS(C)=O): 6.6 ns
fluorescence lifetime (in ClC(Cl)Cl): 5.6 ns
fluorescence lifetime (in ClCCl): 6.2 ns
fluorescence lifetime (in O): 2.3 ns
SMILES: O=S(=O)(/N=c1\oc2cccc3c4c(-c5ccccc5)oc5cccc(c(c1-c1ccccc1)c23)c54)C(F)(F)F

fluorescence lifetime (in ClC(Cl)Cl): 5.4 ns
SMILES: Cc1ccc(-c2oc3cccc4c5c(-c6ccc(C)cc6)/c(=N/S(=O)(=O)C(F)(F)F)oc6cccc(c2c34)c65)cc1

fluorescence lifetime (in CC1CCCCC1): 3.4 ns
SMILES: CC(C)(C)c1cc2c3cc(C(C)(C)C)c(-c4cc5cc6c7cccc8cccc(c9cc(C(C)(C)C)cc(c5cc4C(C)(C)C)c96)c87)cc3cc3c4cccc5cccc(c(c1)c23)c54

fluorescence lifetime (in ClCCl): 1.72 ns
SMILES: COC(=O)c1cc(=O)n(C)c2cc(-c3ccc4c(c3)OCO4)sc12

SMILES: Cc1c2oc3c(C)c(N)cc(C(=O)NC4OC(=O)C(C(C)C)N(C)C(=O)CN(C)C(=O)C5CCCN5C(=O)C(C(C)C)NC4=O)c3nc-2c(C(=O)NC2OC(=O)C(C(C)C)N(C)C(=O)CN(C)C(=O)C3CCCN3C(=O)C(C(C)C)NC2=O)c(N)c1=O (stereo unspecified)
fluorescence lifetime (in C1CCCCC1): 1.07 ns
fluorescence lifetime (in CC#N): 1.54 ns
fluorescence lifetime (in CC(=O)O): 0.49 ns
fluorescence lifetime (in CC(C)=O): 0.93 ns
fluorescence lifetime (in CCCCO): 1.5 ns
fluorescence lifetime (in CCCCOC(C)=O): 1.1 ns
fluorescence lifetime (in CCCO): 1.34 ns
fluorescence lifetime (in CCN(CC)CC): 0.62 ns
fluorescence lifetime (in CCO): 1.22 ns
fluorescence lifetime (in CCOC(C)=O): 1.19 ns
fluorescence lifetime (in CO): 0.5 ns
fluorescence lifetime (in CS(C)=O): 1.8 ns
fluorescence lifetime (in Cc1ccccc1): 1.23 ns
fluorescence lifetime (in ClC(Cl)Cl): 1.02 ns
fluorescence lifetime (in ClCCCl): 1.16 ns
fluorescence lifetime (in O): 0.75 ns
fluorescence lifetime (in O=[N+]([O-])c1ccccc1): 0.37 ns
fluorescence lifetime (in [2H]O[2H]): 1.08 ns
fluorescence lifetime (in c1ccccc1): 1.22 ns
fluorescence lifetime (in c1ccncc1): 1.53 ns

fluorescence lifetime (in ClCCl): 63.8 ns
fluorescence lifetime (in OCC(F)(F)F): 8.7 ns
SMILES: C=CCOc1nnc(OCCC(F)(F)C(F)(F)C(F)(F)C(F)(F)C(F)(F)C(F)(F)F)nn1

fluorescence lifetime (in ClCCl): 1.92 ns
SMILES: N#Cc1ccc(-n2c(-c3ccc(-c4ccc(-c5nc6c7ccccc7c7ccccc7c6n5-c5ccc(C#N)c6ccccc56)cc4)cc3)nc3c4ccccc4c4ccccc4c32)c2ccccc12

fluorescence lifetime (in CC#N): 1.1 ns
SMILES: CCCCCCCCCCOc1cc2cc(C#Cc3ccc(/C=C(\C#N)C(=O)O)cc3)c(=O)oc2cc1OCCCCCCCCCC

SMILES: CCCCCCCCCCCCn1cccc1/C=C/c1cc(OCCCC)c(/C=C/c2cccn2CCCCCCCCCCCC)cc1OCCCC
fluorescence lifetime (in Cc1ccccc1): 1.26 ns

SMILES: O=[N+]([O-])c1ccc(F)cc1C1CC(c2cccc3ccccc23)=NN1c1ccccc1 (stereo unspecified)
fluorescence lifetime (in C1CCCCC1): 3.08 ns
fluorescence lifetime (in C1CCOC1): 3.76 ns
fluorescence lifetime (in C1COCCO1): 3.77 ns
fluorescence lifetime (in CC#N): 3.81 ns
fluorescence lifetime (in CC(C)O): 2.85 ns
fluorescence lifetime (in CCOC(C)=O): 3.67 ns
fluorescence lifetime (in CCOCC): 3.53 ns
fluorescence lifetime (in CO): 2.86 ns
fluorescence lifetime (in Cc1ccccc1): 3.29 ns
fluorescence lifetime (in ClC(Cl)Cl): 3.68 ns
fluorescence lifetime (in O): 1.4 ns

fluorescence lifetime (in ClC(Cl)Cl): 15 ns
SMILES: Cc1ccc(-n2c3ccccc3c3cc(-c4ccc5[n+](c4)[B-](F)(F)n4c-5nc5c6ccccc6c6ccccc6c54)ccc32)cc1

SMILES: CCCCCCCCCCCCCCCCOc1cc(C#Cc2ccc3ccccc3c2)c(OCCCCCCCCCCCCCCCC)cc1C#Cc1ccc(C=C(C#N)C#N)cc1
fluorescence lifetime (in Brc1ccccc1): 2.82 ns
fluorescence lifetime (in C1CCCCC1): 1.92 ns
fluorescence lifetime (in C1CCOC1): 0.98 ns
fluorescence lifetime (in C1COCCO1): 3.1 ns
fluorescence lifetime (in CCCCCC): 1.97 ns
fluorescence lifetime (in CCCCCCCCO): 0.62 ns
fluorescence lifetime (in CCCCOCCCC): 2.73 ns
fluorescence lifetime (in CCOC(C)=O): 1.05 ns
fluorescence lifetime (in CCOCC): 3.33 ns
fluorescence lifetime (in Cc1ccccc1): 2.53 ns
fluorescence lifetime (in ClC(Cl)(Cl)Cl): 1.94 ns
fluorescence lifetime (in ClC(Cl)Cl): 2.26 ns
fluorescence lifetime (in ClCCl): 0.63 ns

fluorescence lifetime (in C1CCCCC1): 8 ns
SMILES: C[Si](C)(C)c1cccc2c(C#N)cccc12

fluorescence lifetime (in ClCCl): 3.36 ns
SMILES: COC(=O)c1[nH]c(-c2ccccc2)c2nnc3c4ccccc4oc3c12

fluorescence lifetime (in ClCCl): 0.36 ns
SMILES: CCN(CC)c1ccc2cc(/C=C3\CCCc4c3[o+]c3cc(N(CC)CC)ccc3c4-c3ccccc3C(=O)O)c(=O)oc2c1

SMILES: CCC1=C(C)C2=C(C)c3c(C)c(CC)c(C)n3[B-](F)(F)[N+]2=C1C
fluorescence lifetime (in C1CCCCC1): 5.6 ns
fluorescence lifetime (in C1CCOC1): 5.63 ns
fluorescence lifetime (in C1COCCO1): 5.48 ns
fluorescence lifetime (in CC#N): 5.96 ns
fluorescence lifetime (in CC(C)=O): 5.92 ns
fluorescence lifetime (in CC(C)O): 6.04 ns
fluorescence lifetime (in CCC(C)C): 6.28 ns
fluorescence lifetime (in CCCCCC): 5.9 ns
fluorescence lifetime (in CCCCCCCC): 5.84 ns
fluorescence lifetime (in CCCCCCCCCCO): 5.71 ns
fluorescence lifetime (in CCCCCCCCO): 5.9 ns
fluorescence lifetime (in CCCCCCO): 5.78 ns
fluorescence lifetime (in CCCCO): 5.98 ns
fluorescence lifetime (in CCCO): 6.01 ns
fluorescence lifetime (in CCO): 6.09 ns
fluorescence lifetime (in CCOC(C)=O): 5.78 ns
fluorescence lifetime (in CCOCC): 6.21 ns
fluorescence lifetime (in CN1CCCC1=O): 5.56 ns
fluorescence lifetime (in CN(C)C=O): 5.57 ns
fluorescence lifetime (in CO): 6.1 ns
fluorescence lifetime (in Cc1ccccc1): 5.07 ns
fluorescence lifetime (in OCC(F)(F)F): 6.94 ns
fluorescence lifetime (in OCCO): 5.8 ns
fluorescence lifetime (in OCCOc1ccccc1): 5.46 ns
fluorescence lifetime (in c1ccccc1): 5 ns

SMILES: CCC1=C(C)C2=Cc3c(I)c(I)c(I)n3[B-](F)(F)[N+]2=C1C
fluorescence lifetime (in C1CCCCC1): 0.358 ns
fluorescence lifetime (in CC(C)=O): 0.198 ns
fluorescence lifetime (in CCO): 0.244 ns
fluorescence lifetime (in CCOC(C)=O): 0.236 ns
fluorescence lifetime (in CO): 0.22 ns
fluorescence lifetime (in OCC(F)(F)F): 0.18 ns

fluorescence lifetime (in CC#N): 6.92 ns
fluorescence lifetime (in CCCCCC): 3.35 ns
fluorescence lifetime (in CO): 4.04 ns
fluorescence lifetime (in ClC(Cl)Cl): 4.22 ns
SMILES: c1ccc2cc3cc(-c4cc(-c5nccs5)nc(-c5nccs5)c4)ccc3cc2c1

fluorescence lifetime (in CC(C)O): 4.36 ns
fluorescence lifetime (in CCCCCCCCO): 4.52 ns
fluorescence lifetime (in CCCCCCO): 4.48 ns
fluorescence lifetime (in CCCCO): 4.4 ns
fluorescence lifetime (in CCCO): 4.42 ns
fluorescence lifetime (in CCO): 4.25 ns
fluorescence lifetime (in CO): 4.28 ns
fluorescence lifetime (in O): 4.16 ns
fluorescence lifetime (in [2H]O[2H]): 4.36 ns
SMILES: O=C([O-])c1ccccc1-c1c2ccc(=O)cc-2oc2cc([O-])ccc12

fluorescence lifetime (in CCO): 2.1 ns
fluorescence lifetime (in ClCCl): 6.2 ns
SMILES: Clc1ncc(-c2c3ccccc3c(-c3cnc(Cl)nc3)c3ccccc23)cn1

fluorescence lifetime (in C1CCOC1): 3.65 ns
fluorescence lifetime (in CC#N): 3.73 ns
fluorescence lifetime (in CC(C)O): 4 ns
fluorescence lifetime (in CC(O)CO): 4.28 ns
fluorescence lifetime (in CCCCO): 4.6 ns
fluorescence lifetime (in CCCO): 4.4 ns
fluorescence lifetime (in CCO): 4.1 ns
fluorescence lifetime (in CO): 6.1 ns
fluorescence lifetime (in NC=O): 4.54 ns
fluorescence lifetime (in O): 7 ns
fluorescence lifetime (in O=CO): 8.1 ns
SMILES: N#Cc1ccc(C[C@H](N)C(=O)O)cc1

fluorescence lifetime (in C1COCCO1): 0.023 ns
fluorescence lifetime (in CC#N): 0.044 ns
fluorescence lifetime (in CCO): 0.08 ns
fluorescence lifetime (in OCC(F)(F)F): 0.13 ns
SMILES: Cc1cc(=O)oc2c1cc(Br)c1occ(C)c12

SMILES: Cc1ccc(C(=O)NN2C3=C(CC4=C2CCCC4=O)C(=O)CCC3)cc1
fluorescence lifetime (in C1CCOC1): 4.1 ns
fluorescence lifetime (in CC#N): 5.9 ns
fluorescence lifetime (in CC(C)=O): 5.1 ns
fluorescence lifetime (in CCCCCO): 5.9 ns
fluorescence lifetime (in CO): 4.6 ns
fluorescence lifetime (in ClC(Cl)Cl): 7.9 ns
fluorescence lifetime (in ClCCl): 5.3 ns
